Assay results taken from patent publication US20230167073A1 (Teijin Pharma Limited, priority 2020, published 2023).

Target: T1, Human TRPC6 (Homo sapiens, UniProt Q9Y210)
T1 construct: expressed in transfected cells
T1 sequence (Q9Y210 1-931): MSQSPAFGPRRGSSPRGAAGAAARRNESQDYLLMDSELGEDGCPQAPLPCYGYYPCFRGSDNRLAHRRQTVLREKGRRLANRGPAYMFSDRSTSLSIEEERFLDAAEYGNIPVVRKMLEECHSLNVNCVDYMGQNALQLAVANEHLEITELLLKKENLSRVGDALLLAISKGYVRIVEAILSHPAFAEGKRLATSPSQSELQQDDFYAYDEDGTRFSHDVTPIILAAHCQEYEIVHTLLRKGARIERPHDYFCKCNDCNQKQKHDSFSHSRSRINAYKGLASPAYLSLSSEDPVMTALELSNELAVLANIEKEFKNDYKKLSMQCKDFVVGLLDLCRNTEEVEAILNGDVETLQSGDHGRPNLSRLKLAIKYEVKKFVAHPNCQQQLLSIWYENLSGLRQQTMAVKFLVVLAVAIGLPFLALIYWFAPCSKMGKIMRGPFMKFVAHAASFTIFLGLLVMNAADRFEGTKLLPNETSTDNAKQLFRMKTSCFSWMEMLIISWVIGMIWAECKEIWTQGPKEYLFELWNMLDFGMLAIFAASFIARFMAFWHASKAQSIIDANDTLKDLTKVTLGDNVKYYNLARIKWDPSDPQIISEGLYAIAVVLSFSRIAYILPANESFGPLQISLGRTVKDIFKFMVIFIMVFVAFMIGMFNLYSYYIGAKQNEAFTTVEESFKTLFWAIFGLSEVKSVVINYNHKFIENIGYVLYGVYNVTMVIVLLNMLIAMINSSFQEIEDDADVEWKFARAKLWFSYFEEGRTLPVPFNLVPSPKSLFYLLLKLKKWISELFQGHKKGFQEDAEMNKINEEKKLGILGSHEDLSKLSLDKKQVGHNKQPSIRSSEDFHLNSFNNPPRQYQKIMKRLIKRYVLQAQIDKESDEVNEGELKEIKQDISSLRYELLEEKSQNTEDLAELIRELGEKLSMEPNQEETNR
Assay: Evaluation of TRPC6 channel inhibitory activity (1), FLIPR Calcium 5 Assay Kit, OAG stimulation (Compound Nos. 1-1293)
Type: cell-based
Conditions: Human TRPC6 stably-expressing cells, OAG 30 μM, FLIPR Calcium 5 Assay Kit; read-out: Inhibitory activity (pIC50 class) (converted)
Outline: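 The FLIPR signal is maximum fluorescence after 30 μM OAG minus minimum before compound, measured in a human TRPC6 stable line loaded with Calcium 5 dye. Compounds were preincubated 20 min. pIC50 came from four-parameter logistic fitting of inhibition rates and is given as symbol ranges.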

Row | SMILES | IC50 [nM]
1 | Cc1cc(Oc2cc(C#N)ccc2-c2nccc(CN)n2)cc(N2CCOCC2)n1 [compound 681, 4-[4-(aminomethyl)pyrimidin-2-yl]-3-(2-methyl-6-morpholin-4-ylpyridin-4-yl)oxybenzonitrile] | > 1000
2 | N#Cc1ccc(-c2ncc(CCN)cn2)c(Cn2cc(N3CCOCC3)cn2)c1 [compound 1200, 4-[5-(2-aminoethyl)pyrimidin-2-yl]-3-[(4-morpholin-4-ylpyrazol-1-yl)methyl]benzonitrile] | 10 to 1000
3 | Cc1cc(Oc2cc(C#N)ccc2-c2ccc(C(N)C(=O)O)cn2)cc(N2CCOCC2)n1 (centres unmarked) [compound 410, 2-amino-2-[6-[4-cyano-2-(2-methyl-6-morpholin-4-ylpyridin-4-yl)oxyphenyl]pyridin-3-yl]acetic acid] | 10 to 1000
4 | Cn1nc(N2CCCCC2)cc1C(=O)c1cc(C#N)ccc1-c1ncc(CCN)cn1 [compound 1062, 4-[5-(2-aminoethyl)pyrimidin-2-yl]-3-(2-methyl-5-piperidin-1-ylpyrazole-3-carbonyl)benzonitrile] | < 10
5 | Cc1cc(Oc2cc(C#N)ccc2-c2ccc(C3(O)CNC3)cn2)cc(N2CCOCC2)n1 [compound 537, 4-[5-(3-hydroxyazetidin-3-yl)pyridin-2-yl]-3-(2-methyl-6-morpholin-4-ylpyridin-4-yl)oxybenzonitrile] | > 1000
6 | Cn1nc(C(F)(F)C(F)(F)F)cc1Oc1cc(C#N)ccc1-c1ncc(CCN)cn1 [compound 376, 4-[5-(2-aminoethyl)pyrimidin-2-yl]-3-[2-methyl-5-(1,1,2,2,2-pentafluoroethyl)pyrazol-3-yl]oxybenzonitrile] | < 10
7 | CCN(CC)c1cc(Oc2cc(C#N)ccc2-c2ccc(CCN)cc2)nc(C)n1 [Compound 15, 4-[4-(2-aminoethyl)phenyl]-3-[6-(diethylamino)-2-methylpyrimidin-4-yl]oxybenzonitrile] | 10 to 1000
8 | CC(C)Cc1cn(Cc2cc(C#N)ccc2-c2ncc(CN)cn2)nn1 [compound 1188, 4-[5-(aminomethyl)pyrimidin-2-yl]-3-[[4-(2-methylpropyl)triazol-1-yl]methyl]benzonitrile] | 10 to 1000
9 | Cn1nc(C2CCOCC2)cc1Oc1cc(C#N)ccc1-c1ccc(C(N)CO)cn1 (centres unmarked) [compound 514, 4-[5-(1-amino-2-hydroxyethyl)pyridin-2-yl]-3-[2-methyl-5-(oxan-4-yl)pyrazol-3-yl]oxybenzonitrile] | 10 to 1000
10 | CC(=O)Nc1cc(Oc2cc(C#N)ccc2-c2ccc(CCN)cn2)n(C)n1 [compound 547, N-[5-[2-[5-(2-aminoethyl)pyridin-2-yl]-5-cyanophenoxy]-1-methylpyrazol-3-yl]acetamide] | 10 to 1000
11 | N#Cc1ccc(-c2ncc(CCN)cn2)c(Cc2cnn(-c3ccccn3)c2)c1 [compound 1197, 4-[5-(2-aminoethyl)pyrimidin-2-yl]-3-[(1-pyridin-2-ylpyrazol-4-yl)methyl]benzonitrile] | 10 to 1000
12 | Cn1nc(N2CCOCC2)cc1C(=O)c1cc(C#N)ccc1-c1ccc(CN)cn1 [compound 1029, 4-[5-(aminomethyl)pyridin-2-yl]-3-(2-methyl-5-morpholin-4-ylpyrazole-3-carbonyl)benzonitrile] | < 10
13 | Cc1sc(N2CCOCC2)nc1C(=O)c1cc(C#N)ccc1-c1ccc(CN)cn1 [compound 1067, 4-[5-(aminomethyl)pyridin-2-yl]-3-(5-methyl-2-morpholin-4-yl-1,3-thiazole-4-carbonyl)benzonitrile] | > 1000
14 | Cc1nc(OCC(F)F)cc(Oc2cc(C#N)ccc2-c2ncc(CCN)cn2)n1 [compound 891, 4-[5-(2-aminoethyl)pyrimidin-2-yl]-3-[6-(2,2-difluoroethoxy)-2-methylpyrimidin-4-yl]oxybenzonitrile] | 10 to 1000
15 | CN(C)c1cc(Cc2cc(C#N)ccc2-c2ccc(CCN)cn2)n(C)n1 [compound 1217, 4-[5-(2-aminoethyl)pyridin-2-yl]-3-[[5-(dimethylamino)-2-methylpyrazol-3-yl]methyl]benzonitrile] | < 10
16 | Cn1nc(C2CC2)cc1Oc1cc(C#N)ccc1-c1ccc(CN)nc1 [compound 331, 4-[6-(aminomethyl)pyridin-3-yl]-3-(5-cyclopropyl-2-methylpyrazol-3-yl)oxybenzonitrile] | 10 to 1000
17 | Cc1nc(Oc2cc(C#N)ccc2-c2ccc(CCN)cc2)cc(-c2ccsc2)n1 [Compound 32, 4-[4-(2-aminoethyl)phenyl]-3-(2-methyl-6-thiophen-3-ylpyrimidin-4-yl)oxybenzonitrile] | < 10
18 | Cc1nc(Oc2cc(C#N)ccc2-c2nc(C)c(C(O)CN(C)C)s2)cc(-c2ccccc2)n1 (centres unmarked) [Compound 98, 4-[5-[2-(dimethylamino)-1-hydroxyethyl]-4-methyl-1,3-thiazol-2-yl]-3-(2-methyl-6-phenylpyrimidin-4-yl)oxybenzonitrile] | > 1000
19 | Cc1nc(Oc2cc(C#N)ccc2-c2ccc(CC3(N)COC3)cn2)cc(N2CCC[C@H]2C#N)n1 [compound 673, (2S)-1-[6-[2-[5-[(3-aminooxetan-3-yl)methyl]pyridin-2-yl]-5-cyanophenoxy]-2-methylpyrimidin-4-yl]pyrrolidine-2-carbonitrile] | > 1000

Continued, values first:

Row | IC50 [nM] | SMILES
20 | < 10 | Cc1nc(-c2ccccc2)cn1Cc1cc(C#N)ccc1-c1ccc(C(O)CN)cc1 (centres unmarked) [compound 1130, 4-[4-(2-amino-1-hydroxyethyl)phenyl]-3-[(2-methyl-4-phenylimidazol-1-yl)methyl]benzonitrile]
21 | < 10 | N#Cc1ccc(-c2ccc(CCN)cn2)c(Sc2cnnc(N3CCCC3)c2)c1 [compound 1244, 4-[5-(2-aminoethyl)pyridin-2-yl]-3-(6-pyrrolidin-1-ylpyridazin-4-yl)sulfanylbenzonitrile]
22 | < 10 | Cc1nc(OCC(C)C)cc(Oc2cc(C#N)ccc2-c2ncc(CCN)cn2)n1 [compound 849, 4-[5-(2-aminoethyl)pyrimidin-2-yl]-3-[2-methyl-6-(2-methylpropoxy)pyrimidin-4-yl]oxybenzonitrile]
23 | > 1000 | Cc1nc(N2CCOCC2)ccc1Oc1cc(C#N)ccc1-c1ncc(CCN)cn1 [compound 921, 4-[5-(2-aminoethyl)pyrimidin-2-yl]-3-(2-methyl-6-morpholin-4-ylpyridin-3-yl)oxybenzonitrile]
24 | 10 to 1000 | CC(C)Cn1cc(Cc2cc(C#N)ccc2-c2ncc(CN)cn2)cn1 [compound 1196, 4-[5-(aminomethyl)pyrimidin-2-yl]-3-[[1-(2-methylpropyl)pyrazol-4-yl]methyl]benzonitrile]
25 | < 10 | CCN(CC)c1cc(Oc2cc(F)ccc2-c2ncc(CN)cn2)n(C)n1 [compound 992, 5-[2-[5-(aminomethyl)pyrimidin-2-yl]-5-fluorophenoxy]-N,N-diethyl-1-methylpyrazole-3-amine]
26 | > 1000 | CCc1cc(Oc2cc(C#N)ccc2-n2cc(CC(N)C(=O)O)c3ccccc32)n(C)n1 (centres unmarked) [compound 460, 2-amino-3-[1-[4-cyano-2-(5-ethyl-2-methylpyrazol-3-yl)oxyphenyl]indol-3-yl]propanoic acid]
27 | > 1000 | N#Cc1ccc(-c2ccc(CCN)cn2)c(Oc2cc(N3CCCCC3)cnn2)c1 [Compound 92, 4-[5-(2-aminoethyl)pyridin-2-yl]-3-(5-piperidin-1-ylpyridazin-3-yl)oxybenzonitrile]
28 | < 10 | N#Cc1ccc(-c2ccc(CCN)cn2)c(Cn2cnc(-c3cccc(F)c3)c2)c1 [compound 1149, 4-[5-(2-aminoethyl)pyridin-2-yl]-3-[[4-(3-fluorophenyl)imidazol-1-yl]methyl]benzonitrile]
29 | < 10 | Cn1nc(N2CCCC2)cc1C(=O)c1cc(C#N)ccc1-c1ncc(CN)cn1 [compound 1072, 4-[5-(aminomethyl)pyrimidin-2-yl]-3-(2-methyl-5-pyrrolidin-1-ylpyrazole-3-carbonyl)benzonitrile]
30 | < 10 | N#Cc1ccc(-c2ncc(CCN)cn2)c(C(=O)c2cnn(-c3nccs3)c2)c1 [compound 1048, 4-[5-(2-aminoethyl)pyrimidin-2-yl]-3-[1-(1,3-thiazol-2-yl)pyrazole-4-carbonyl]benzonitrile]
31 | 10 to 1000 | N#Cc1ccc(-c2ccc(CCN)cc2)c(Oc2cnnc(O[C@H]3CCC[C@H]3O)c2)c1 [Compound 123, 4-[4-(2-aminoethyl)phenyl]-3-[6-[(1S,2R)-2-hydroxycyclopentyl]oxypyridazin-4-yl]oxybenzonitrile]
32 | 10 to 1000 | Cc1nc(Oc2cc(C#N)ccc2-c2ccc(CN)cn2)cc(N(C)C)n1 [compound 659, 4-[5-(aminomethyl)pyridin-2-yl]-3-[6-(dimethylamino)-2-methylpyrimidin-4-yl]oxybenzonitrile]
